The text below walks through data of patent publication US9149475B2, “Protein kinase C inhibitors and uses thereof” (Rigel Pharmaceuticals, Inc., priority 2009, dated 2015).

A word on the IC50: it is the concentration that gives 50% inhibition.

A value given as a limit tells only on which side of the number the result lay.

The experiment deals with Human primary T cells. The experiment can be described thus: IL-2 ELISA, human primary T cell, anti-CD3+CD28+ (whole cell assay). Type of experiment: cell-based. Conditions: Homo sapiens, T-cell, 24 h, human primary T cells stimulated with anti-CD3 + anti-CD28, 24 hours. As for the experimental part: (§1) Human primary T cells were prepared as follows. Whole blood was obtained from a healthy volunteer, mixed 1:1 with PBS, layered on to Ficoll Hypaque (Amersham Pharmacia Biotech, Piscataway, N.J., Catalog #17-1440-03) in 2:1 blood/PBS:ficoll ratio and centrifuged for 30 minutes at 4° C. at 1750 rpm. The cells at the serum:ficoll interface were recovered and washed twice with 5 volumes of PBS. These freshly isolated human peripheral blood mononuclear cells were cultured in Yssel's medium containing 40 U/mL IL2 in a flask pre-coated with 1 μg/mL αCD3 and 5 μg/mL αCD28 (Anti-Human CD3, BD Pharmingen Catalog #555336, Anti-Human CD28, Beckman Coulter Catalog #IM1376). The cells were stimulated for 3-4 days, then transferred to a fresh flask and maintained in RPMI (RPMI-1640 with L-Glutamine; Mediatech, Inc., Herndon Va., cat. #10-040-CM) with 10% FBS and 40 U/mL IL-2. The primary T-cells were then washed twice with PBS to remove the IL-2.
Human primary T cells (100,000 cells per well) were pre-incubated with or without test compound in Yssel's medium for 1 hr at 37° C. Cells were then stimulated by transferring them to round-bottom 96-well plates pre-coated with 1 μg/ml μCD3 and 5 μg/ml μCD28. For counter assay, cells were instead stimulated by adding 8× stock solutions of PMA and ionomycin in Yssels (for final concentrations of 0.5 ng/ml PMA and 0.1 μM ionomycin, both from Calbiochem). Cells were incubated at 37° C. for 24 hours before 100 μL supernatants were harvested for quantification of IL-2 by ELISA using Human IL-2 Duoset ELISA Kit from R and D Systems, Cat. #DY202E.
as §1, with “Human primary T cell isolation and culture: Human primary” for “Human primary”, “for 30 min at 4°” for “for 30 minutes at 4°”, “at the serum: ficoll interface were” for “at the serum:ficoll interface were”
Primary T cell stimulation and IL2 ELISA: Human primary T cells (100,000 cells per well) were pre-incubated with or without test compound in Yssel's medium for 1 hr at 37° C. Cells were then stimulated by transferring them to round-bottom 96-well plates pre-coated with 1 μg/ml αCD3 and 5 μg/ml αCD28. For counter assay, cells were instead stimulated by adding 8× stock solutions of PMA and ionomycin in Yssels (for final concentrations of 0.5 ng/ml PMA and 0.1 μM ionomycin, both from Calbiochem). Cells were incubated at 37° C. for 24 hours before 100 μL supernatants were harvested for quantification of IL-2 by ELISA using Human IL-2 Duoset ELISA Kit from R and D Systems, Cat. #DY202E.
Take `CC1(C)CC(Nc2nc(Nc3cccc(-n4cccn4)c3)ncc2F)CC(C)(C)N1` [Compound I-23, N2-(3-(1H-pyrazol-1-yl)phenyl)-5-fluoro-N4-(2,2,6,6-tetramethylpiperidin-4-yl)pyrimidine-2,4-diamine]: the IC50 is over 1000 nM.
For `CC1(C)CC(Nc2nc(Nc3ccc(OCCn4ccnn4)c(OC(F)F)c3)ncc2F)CC(C)(C)N1` [Compound I-24, N2-(4-(2-(1H-1,2,3-triazol-1-yl)ethoxy)-3-(difluoromethoxy)phenyl)-5-fluoro-N4-(2,2,6,6-tetramethylpiperidin-4-yl)pyrimidine-2,4-diamine], the IC50 is 500 to 1000 nM.
`CC1(C)CC(Nc2nc(Nc3ccc(OCCn4cncn4)c(OC(F)F)c3)ncc2F)CC(C)(C)N1` [Compound I-25, N2-(4-(2-(1H-1,2,4-triazol-1-yl)ethoxy)-3-(difluoromethoxy)phenyl)-5-fluoro-N4-(2,2,6,6-tetramethylpiperidin-4-yl)pyrimidine-2,4-diamine]: the IC50 was over 1000 nM.
With `CN1C(C)(C)CC(Nc2nc(Nc3ccc(OCCn4ccnn4)c(OC(F)F)c3)ncc2F)CC1(C)C` [Compound I-26, N2-(4-(2-(1H-1,2,3-triazol-1-yl)ethoxy)-3-(difluoromethoxy)phenyl)-5-fluoro-N4-(1,2,2,6,6-pentamethylpiperidin-4-yl)pyrimidine-2,4-diamine] the figure was 250 to 500 nM; with `CN1C(C)(C)CC(Nc2nc(Nc3ccc(OCCn4cncn4)c(OC(F)F)c3)ncc2F)CC1(C)C` [Compound I-27, N2-(4-(2-(1H-1,2,4-triazol-1-yl)ethoxy)-3-(difluoromethoxy)phenyl)-5-fluoro-N4-(1,2,2,6,6-pentamethylpiperidin-4-yl)pyrimidine-2,4-diamine], under 250 nM; with `CC1(C)CC(Nc2nc(Nc3cc(OCCn4cncn4)cc(C(F)(F)F)c3)ncc2F)CC(C)(C)N1` [Compound I-28, N2-(3-(2-(1H-1,2,4-triazol-1-yl)ethoxy)-5-(trifluoromethyl)phenyl)-5-fluoro-N4-(2,2,6,6-tetramethylpiperidin-4-yl)pyrimidine-2,4-diamine], 500 to 1000 nM.
In the case of `CN1C(C)(C)CC(Nc2nc(Nc3cc(OCCn4cncn4)cc(C(F)(F)F)c3)ncc2F)CC1(C)C` [Compound I-29, N2-(3-(2-(1H-1,2,4-triazol-1-yl)ethoxy)-5-(trifluoromethyl)phenyl)-5-fluoro-N4-(1,2,2,6,6-pentamethylpiperidin-4-yl)pyrimidine-2,4-diamine], the IC50 fell in the range of 500 to 1000 nM.
For the compound `CC1(C)CC(Nc2nc(Nc3ccc(OCCN4CCCC4=O)c(OC(F)F)c3)ncc2F)CC(C)(C)N1` [Compound I-30, 1-(2-(4-(4-(2,2,6,6-tetramethylpiperidin-4-ylamino)-5-fluoropyrimidin-2-ylamino)-2-(difluoromethoxy)phenoxy)ethyl)pyrrolidin-2-one], the IC50 was 500 to 1000 nM.
In the case of `CN1C(C)(C)CC(Nc2nc(Nc3ccc(OCCN4CCCC4=O)c(OC(F)F)c3)ncc2F)CC1(C)C` [Compound I-31, 1-(2-(4-(4-(1,2,2,6,6-pentamethylpiperidin-4-ylamino)-5-fluoropyrimidin-2-ylamino)-2-(difluoromethoxy)phenoxy)ethyl)pyrrolidin-2-one], the IC50 is under 250 nM.
Turning to `CC1(C)CC(Nc2nc(Nc3cc(OCCn4ccnn4)cc(C(F)(F)F)c3)ncc2F)CC(C)(C)N1` [Compound I-32, N2-(3-(2-(1H-1,2,3-triazol-1-yl)ethoxy)-5-(trifluoromethyl)phenyl)-5-fluoro-N4-(2,2,6,6-tetramethylpiperidin-4-yl)pyrimidine-2,4-diamine], the IC50 lay within 500 to 1000 nM.
For `CN1C(C)(C)CC(Nc2nc(Nc3cc(OCCn4ccnn4)cc(C(F)(F)F)c3)ncc2F)CC1(C)C` [Compound I-33, N2-(3-(2-(1H-1,2,3-triazol-1-yl)ethoxy)-5-(trifluoromethyl)phenyl)-5-fluoro-N4-(1,2,2,6,6-pentamethylpiperidin-4-yl)pyrimidine-2,4-diamine], the IC50 fell in the range of 250 to 500 nM.
As for `CC1(C)CC(Nc2nc(Nc3ccc(OCCn4ccnn4)c(OC(F)F)c3)ncc2C#N)CC(C)(C)N1` [Compound I-34, 4-(2,2,6,6-tetramethylpiperidin-4-ylamino)-2-(4-(2-(1H-1,2,3-triazol-1-yl)ethoxy)-3-(difluoromethoxy)phenylamino)pyrimidine-5-carbonitrile], the half-maximal inhibitory concentration (IC50) lay in the range of 500 to 1000 nM.
The value for `CC1(C)CC(Nc2nc(Nc3cc(F)cc(OCCCn4cccc4)c3)ncc2F)CC(C)(C)N1` [Compound I-35, N2-(3-(3-(1H-pyrrol-1-yl)propoxy)-5-fluorophenyl)-5-fluoro-N4-(2,2,6,6-tetramethylpiperidin-4-yl)pyrimidine-2,4-diamine] was 500 to 1000 nM.
Regarding `CN1C(C)(C)CC(Nc2nc(Nc3cc(F)cc(OCCCn4cccc4)c3)ncc2F)CC1(C)C` [Compound I-36, N2-(3-(3-(1H-pyrrol-1-yl)propoxy)-5-fluorophenyl)-5-fluoro-N4-(1,2,2,6,6-pentamethylpiperidin-4-yl)pyrimidine-2,4-diamine], the half-inhibitory concentration (IC50) is 500 to 1000 nM.
In the case of `CC1(C)CC(Nc2nc(Nc3cc(F)cc(OCCN4CCCC4=O)c3)ncc2F)CC(C)(C)N1` [Compound I-37, 1-(2-(3-(4-(2,2,6,6-tetramethylpiperidin-4-ylamino)-5-fluoropyrimidin-2-ylamino)-5-fluorophenoxy)ethyl)pyrrolidin-2-one], the IC50 was over 1000 nM.
For `CN1C(C)(C)CC(Nc2nc(Nc3cc(F)cc(OCCN4CCCC4=O)c3)ncc2F)CC1(C)C` [Compound I-38, 1-(2-(3-(4-(1,2,2,6,6-pentamethylpiperidin-4-ylamino)-5-fluoropyrimidin-2-ylamino)-5-fluorophenoxy)ethyl)pyrrolidin-2-one], the IC50 was in the range of 500 to 1000 nM.
The value for `CC1(C)CC(Nc2nc(Nc3cc(F)cc(OCCn4cncn4)c3)ncc2F)CC(C)(C)N1` [Compound I-39, N2-(3-(2-(1H-1,2,4-triazol-1-yl)ethoxy)-5-fluorophenyl)-5-fluoro-N4-(2,2,6,6-tetramethylpiperidin-4-yl)pyrimidine-2,4-diamine] was over 1000 nM; that for `CN1C(C)(C)CC(Nc2nc(Nc3cc(F)cc(OCCn4cncn4)c3)ncc2F)CC1(C)C` [Compound I-40, N2-(3-(2-(1H-1,2,4-triazol-1-yl)ethoxy)-5-fluorophenyl)-5-fluoro-N4-(1,2,2,6,6-pentamethylpiperidin-4-yl)pyrimidine-2,4-diamine] was 500 to 1000 nM.
With `CN1C(C)(C)CC(Nc2nc(Nc3ccc(OCCCn4cccc4)c(OC(F)F)c3)ncc2F)CC1(C)C` [Compound I-41, N2-(4-(3-(1H-pyrrol-1-yl)propoxy)-3-(difluoromethoxy)phenyl)-5-fluoro-N4-(1,2,2,6,6-pentamethylpiperidin-4-yl)pyrimidine-2,4-diamine] the figure was under 250 nM; with `CC1(C)CC(Nc2nc(Nc3ccc(OCCCn4cccc4)c(OC(F)F)c3)ncc2F)CC(C)(C)N1` [Compound I-42, N2-(4-(3-(1H-pyrrol-1-yl)propoxy)-3-(difluoromethoxy)phenyl)-5-fluoro-N4-(2,2,6,6-tetramethylpiperidin-4-yl)pyrimidine-2,4-diamine], under 250 nM.
On to `CN1C(C)(C)CC(Nc2nc(Nc3ccc(Oc4ccncc4)c(OC(F)F)c3)ncc2F)CC1(C)C` [Compound I-43, N2-(3-(difluoromethoxy)-4-(pyridin-4-yloxy)phenyl)-5-fluoro-N4-(1,2,2,6,6-pentamethylpiperidin-4-yl)pyrimidine-2,4-diamine], for which the IC50 was over 1000 nM.
